Reference: patent publication US8969312B2, “Low side effect pharmaceutical composition containing antituberculosis drugs” (priority 2011, dated 2015)

Assays:
[1] = molecular target: human liver microsomal cytochrome P450 2E1 (CYP2E1) (Homo sapiens, UniProt P05181); test: Human liver microsomal CYP2E1, chlorzoxazone 6-hydroxylation;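 further: chlorzoxazone added as substrate, 6-hydroxychlorzoxazone formation quantified by LC/MS/MS after 30 min at 37 °C with NADP+ regenerating system, compared against solvent control without test sample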
Procedure: Microsomes prepared from human liver were used to extract cytochrome P450 2E1 (CYP2E1) and CYP2E1 inhibitors were screened from 39 Chinese medicine guiding drugs and 10 excipients. Chlorzoxazone hydroxylation is a reaction catalyzed primarily by CYP2E1 in liver. The extracted human liver microsomal cytochrome P450 2E1 (CYP2E1) was mixed with its substrate, Chlorzoxazone, and test sample was then added Inhibition of CYP2E1 activity was calculated by measuring CYP2E1 standard metabolite, 6-OH-CZX (6-Hydroxy-Chlorzoxazone), and compared with control 6-OH-CZX.
After incubation, 16 mM Chlorzoxazone and test samples were added to experimental groups; methanol:sterilized water at 1:1 ratio was added to control groups and DDTC was added to positive control groups,
Finally, cofactor 1 mM NADP^+, 10 mM G6P and 2 IU G6PD were added and reaction mixtures were transferred to pre-incubation 37° C. water bath for 1 mM and activity was measured after 30 min of reaction
At the end of reaction, 500 μl acetonitrile was added to stop the reaction followed by 5 g/mL 4-hydroxy-tobutamide after 1 mM incubation. The mixture was then centrifuged and 20 L of supernatant was diluted ten times with methanol/sterilized water and 5 L was used for LC/MS/MS analysis. […] The inhibition of CYP2E1 was then calculated by the following equation:

amidase = test: Mouse liver microsomal amidase, isoniazid to isonicotinic acid; format: biochemical
Excerpt: Mouse liver microsomes were used as the source of amidase, and isoniazid was used as the amidase metabolism drugs. quantitative isoniazid was catalyzed into metabolites isonicotinic acid (INA) by amidase, and was used as the index for measurement of the amidase activity for establishment of the platform for screening in vitro amidase activity inhibitors. The HPLC system includes a Shimadzu the LC-LOAD pump, 1 Shimadzu system control and a Shimadzu autosampler (Shimadzu Scientific Instrument, Japan). A C18 column (particle size 5 μm, inner diameter of 50×4.6 mm, 25 cm) containing 70% methanol and 30% ammonium formate (50 mM, pH=2.5) of the mobile phase for HPLC separation, and the experimental steps are outlined as follows:
(2) An aliquot of 150 μL mouse liver microsomal solution was added to 100 μL isoniazid solution in 35 μL 67 mM potassium phosphate buffer solution ([…], pH=7) with a final concentration at 3 mM, and then mixed thoroughly with 15 μL amidase inhibitor (deionized water was added in the control group). (3) Incubation at 37° C. water bath for 30 minutes. (4) An aliquot of 300 μL acetonitrile (ACN) was added and mixed thoroughly, and incubated for 6 minutes. (5) An aliquot of 30 μL perchloric acid was then mixed and incubated for 6 minutes. (6) The mixture was centrifuged at 13000 g for 6 minutes. (7) After centrifugation, 100 μL of the supernatant was injected into HPLC. (8) Methanol ammonium formate (50 mM, pH=2.5)=70:30 (V/V) was selected as the mobile phase, and the flow rate was controlled at […] and detected at 270 nm UV. […] The amidase inhibition % was then calculated using the following formula: […]

[2] = Table 6, minimum tested concentration (mg/L) × volume of human liver and intestine (3 L)

human liver microsomal cytochrome P450 2E1 (CYP2E1), sequence (P05181 whole entry): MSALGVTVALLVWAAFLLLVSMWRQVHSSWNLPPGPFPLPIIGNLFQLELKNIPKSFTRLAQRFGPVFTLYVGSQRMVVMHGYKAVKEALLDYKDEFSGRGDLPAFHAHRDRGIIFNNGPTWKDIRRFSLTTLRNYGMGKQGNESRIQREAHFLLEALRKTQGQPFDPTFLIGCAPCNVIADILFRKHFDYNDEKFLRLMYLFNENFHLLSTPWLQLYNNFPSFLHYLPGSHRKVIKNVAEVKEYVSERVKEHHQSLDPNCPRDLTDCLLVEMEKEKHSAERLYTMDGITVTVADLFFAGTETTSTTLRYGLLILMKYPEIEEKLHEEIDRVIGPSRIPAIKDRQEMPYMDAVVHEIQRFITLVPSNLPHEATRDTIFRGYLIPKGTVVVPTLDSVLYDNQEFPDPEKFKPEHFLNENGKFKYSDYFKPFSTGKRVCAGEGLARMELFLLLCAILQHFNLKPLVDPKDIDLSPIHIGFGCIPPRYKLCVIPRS

Compound | Amidase inhibition (amidase; 1 uM) [%] | Amidase inhibition (amidase; 10 uM) [%] | Amidase inhibition (amidase; 100 uM) [%] | also measured
C=C(C)C1CC=C(C)CC1 (single isomer, unassigned; (+)) [(+)-Limonene] | 5.1 ± 0.4 | 3.2 ± 8.6 | 6.2 ± 3.8 | Inhibition of CYP 2E1 ([1]; 16.5 μM): 13.77 ± 1.96%; Inhibition of CYP 2E1 ([1]; 33 μM): 38.05 ± 1.95%; Inhibition of CYP 2E1 ([1]; 66 μM): 63.64 ± 2.74%
Oc1cc(O)c2c(c1)O[C@@H](c1ccc(O)c(O)c1)[C@@H](O)C2 [(+)-Epicatechin] | – | – | – | Inhibition of CYP 2E1 ([1]; 16.5 μM): 66.71 ± 1.79%; Inhibition of CYP 2E1 ([1]; 33 μM): 52.32 ± 1.59%; Minimum Effective Dose [1, 2]: 16 mg
O=C(O[C@@H]1Cc2c(O)cc(O)cc2O[C@@H]1c1cc(O)c(O)c(O)c1)c1cc(O)c(O)c(O)c1 [(−)-Epigallocetechin-3-gallate] | – | – | – | Inhibition of CYP 2E1 ([1]; 16.5 μM): 50.19 ± 1.89%; Inhibition of CYP 2E1 ([1]; 33 μM): 60.53 ± 2.06%; Inhibition of CYP 2E1 ([1]; 66 μM): 72.16 ± 1.02%
O=[N+]([O-])c1ccc(OP(=O)(O)Oc2ccc([N+](=O)[O-])cc2)cc1 [BNPP, bis-p-nitrophenyl phosphate, reference compound] | – | – | – | Amidase inhibition (amidase; positive control, own concentration not given): 92.1 ± 8.7%
COc1ccc(O)c(C(C)(C)C)c1 [Butylated hydroxyl anisol] | – | – | – | Inhibition of CYP 2E1 ([1]; 16.5 μM): −16.8 ± 0.5%; Inhibition of CYP 2E1 ([1]; 33 μM): −47.1 ± 5.1%; Inhibition of CYP 2E1 ([1]; 66 μM): −85.5 ± 3.9%; Minimum Effective Dose ([1]; Table 7): 9 mg
COc1cc(-c2cc(=O)c3c(O)cc(O)cc3o2)ccc1O [Chrysoeriol] | 7.7 ± 7.1 | 24.9 ± 11.2 | 23.2 ± 1.2 | –
CC12CCC(CC1)C(C)(C)O2 [Cineole] | −16.5 ± 17.5 | −4.7 ± 4.9 | 22.9 ± 10.4 | –
COc1cc(/C=C/C(=O)CC(=O)/C=C/c2ccc(O)c(OC)c2)ccc1O [Curcumin] | 16.9 ± 11.0 | 16.1 ± 0.4 | 9.7 ± 6.0 | –
O=c1c(-c2ccc(O)cc2)coc2cc(O[C@@H]3O[C@H](CO)[C@@H](O)[C@H](O)[C@H]3O)ccc12 [Daidzin] | 3.6 ± 3.0 | 1.1 ± 5.4 | 7.4 ± 6.3 | –
CC(C)[C@@H](C)/C=C/[C@@H](C)[C@H]1CC[C@H]2C3=CC=C4C[C@@H](O)CC[C@]4(C)[C@H]3CC[C@]12C [Ergosterol] | 4.3 ± 10.7 | −0.4 ± 10.7 | 0.4 ± 3.6 | –
C[C@@H]1O[C@@H](OC[C@H]2O[C@@H](Oc3cc(O)c4c(c3)O[C@H](c3ccc(O)c(O)c3)CC4=O)[C@H](O)[C@@H](O)[C@@H]2O)[C@H](O)[C@H](O)[C@H]1O [Eriocitrin] | −16.1 ± 12.8 | 19.0 ± 3.0 | 32.8 ± 1.9 | –
O=C1C[C@@H](c2ccc(O)c(O)c2)Oc2cc(O)cc(O)c21 [Eriodictyol] | 9.0 ± 4.7 | 6.5 ± 11.3 | 22.3 ± 4.7 | –
CCCCCCCCCCCCCC(=O)OCC [Ethyl Myristate] | – | – | – | Minimum Effective Dose [1, 2]: 14 mg
COc1ccc(-c2cc(=O)c3c(O)c(OC)c(OC)cc3o2)cc1O [Eupatorin] | 0.9 ± 2.8 | 7.5 ± 0.7 | 12.0 ± 7.4 | –
O=c1c(O)c(-c2ccc(O)c(O)c2)oc2cc(O)ccc12 [Fisetin] | −9.2 ± 2.5 | 38.3 ± 2.0 | 56.4 ± 2.9 | –
O=c1c(O)c(-c2ccccc2)oc2cc(O)cc(O)c12 [Galangin] | 9.6 ± 9.9 | 32.8 ± 4.4 | 61.5 ± 2.7 | –
CC1(C)[C@@H](O[C@H]2O[C@H](C(=O)O)[C@@H](O)[C@H](O)[C@H]2O[C@@H]2O[C@H](C(=O)O)[C@@H](O)[C@H](O)[C@H]2O)CC[C@]2(C)[C@H]3C(=O)C=C4[C@@H]5C[C@@](C)(C(=O)O)CC[C@]5(C)CC[C@@]4(C)[C@]3(C)CC[C@@H]12 [Glycyrrhizin] | −1.3 ± 3.1 | 4.3 ± 11.3 | 24.4 ± 12.7 | –
COc1ccc([C@@H]2CC(=O)c3c(O)cc(O[C@@H]4O[C@H](CO[C@@H]5O[C@@H](C)[C@H](O)[C@@H](O)[C@H]5O)[C@@H](O)[C@H](O)[C@H]4O)cc3O2)cc1O [Hesperidin] | – | – | – | Inhibition of CYP 2E1 ([1]; 16.5 μM): 45.32 ± 1.57%; Inhibition of CYP 2E1 ([1]; 33 μM): 50.91 ± 2.81%; Inhibition of CYP 2E1 ([1]; 66 μM): 58.57 ± 3.78%; Minimum Effective Dose [1, 2]: 33 mg
O=c1cc(-c2ccc(O)c(O)c2)oc2cc(O)c([C@@H]3O[C@H](CO)[C@@H](O)[C@H](O)[C@H]3O)c(O)c12 [Homoorientin] | 7.4 ± 3.8 | 3.5 ± 0.9 | 18.0 ± 2.6 | –
